From patent publication US20240101584A1, “TARGETED DELIVERY OF 1,2,4,5 TETRAOXANE COMPOUNDS AND THEIR USES” (Westlake University, priority 2021, published 2024)
Where two headings read alike, the source gives them in different places.

Columns and labels:
HCT116 cells = experiment: MTT viability assay, HCT116 cells; assay type: cell-based, human; details: for IC50: Homo sapiens, HCT-116; for fold more cytotoxic to HCT116 cells than OZ277: comparator OZ277; for fold more cytotoxic than OZ439 on HCT116: comparator OZ439 (literature)
Method: (§1) The anticancer activities of the exemplary compounds listed in Example 1 were tested against human cervix Hela cells, mammary breast cancer MDA-MB-231 cells, human hepatocellular HepG2 cells, human colorectal HCT116 cells, mammary ductal T47D cells, non-cancerous NIH3T3 cells, dog's kidney MDCK cells, and mouse brain bEnd.3 cells, respectively.

[1] = tested on: cytosolic hydroxyl radical in MDA-MB-231 cells; experiment: HKOH-1r hydroxyl radical detection in MDA-MB-231 cells; assay type: cell-based; details: about 5.5 h after addition
Method: FIG. 10 is a bar graph showing the relative mean fluorescence intensities of cells with HKOH-1r measured from the confocal images of MDA-MB-231 cells after treatment with compounds 48 and 37b, respectively. Scale bars represent 50 μm. Data are mean±s.e.m., n=20 cells for HKOH-1. Statistical significance was determined as ***P≤0.01 by Student's t test.
Reactive oxygen species is associated with the event of ferroptotic cell death. Oxidative stress induced by 48 and 37b can be indicated by the fluorogenic probe, HKOH-1r, that emits at 520 nm upon oxidation by cytosolic hydroxyl radical. By using HKOH-1r, it is possible to specify the type of ROS that tetraoxanes can produce in MDA-MB-231 cells.
Confocal images of MDA-MB-231 cells after tetraoxane treatment were captured and the relative mean fluorescence intensities of cells with HKOH-1r were quantified (FIG. 10). […] This phenomenon is consistent with one of the features of ferroptosis.

PLC = experiment: Viability IC50, PLC cells; assay type: cell-based; details: Table 12a
MCF7 = experiment: Viability IC50, MCF7 cells; assay type: cell-based; details: Homo sapiens, Table 12a
HEYA8 CSCs [2] = experiment: Protective effect of Q-VD-OPh, DFX and Fer-1 on HEYA8 CSCs; assay type: cell-based; details: for cell death pathway: HEYA8 cancer cells and CSCs
Method: FIGS. 5A-5B are bar graphs showing the protective effect of Q-VD-OPh, deferasirox (DFX) and ferrostatin-1 (Fer-1) on HeyA8 cancer stem cells (FIG. 5A) and HeyA8 spheres (FIG. 5B) after treatment with compound 48 and compound 37b, respectively, for 24 h. *P≤0.05, **P≤0.01 versus non-pretreated group. Data are plotted as the mean±SD, n=3 biologically independent samples. N.S., no statistically significant change. All P values were determined using two-tailed Student's t-test.

Hela cells = experiment: MTT viability assay, Hela cells; assay type: cell-based, human; details: Homo sapiens, HeLa, 48 h incubation, mean, n = 3, read-out: IC50 against Hela cells
Method: as §1

Huh7 = experiment: Viability IC50, Huh7 cells; assay type: cell-based; details: Homo sapiens, Huh-7; Table 12a
MDA-MB-231 cells = experiment: MTT viability assay, MDA-MB-231 cells; assay type: cell-based; details: for IC50: Homo sapiens; for fold more potent than FINO2 in eradicating MDA-MB-231 cells: comparator FINO2; for fold more cytotoxic than OZ439 on MDA-MB-231: comparator OZ439 (literature)
How it was run: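 Compounds were screened for anticancer activity across a cell panel that included human cervix Hela, mammary breast cancer MDA-MB-231, mammary ductal T47D and mouse brain bEnd.3 cells.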

HeyA8 cells = experiment: CellTiter-Glo viability, adherent HeyA8 ovarian cancer cells; assay type: cell-based; details: HEY A8; adherent cancer cells; CellTiter-Glo, 48 hrs, n = 3
T47D cells = experiment: MTT viability assay, T47D cells; assay type: cell-based; details: for IC50: Homo sapiens, T47D
Method: as §1

MDCK cells = experiment: MTT viability assay, MDCK cells; assay type: cell-based, dog; details: Canis lupus familiaris, MDCK, 48 h incubation, mean, n = 3, read-out: IC50 against MDCK cells
Method: as §1

[3] = tested on: MDA-MB-231 xenograft tumors; experiment: Mouse xenograft breast tumors (MDA-MB-231); assay type: in vivo, Nude mice; details: for histopathological observations of liver, heart, kidney, spleen and lungs: H&E staining, compared to the controls
Method: FIG. 12A is a graph showing the tumor volume of xenograft tumors versus time after s.c. injection of DMSO, PTX, compound 37b, or compound 48. Nude mice were injected s.c. with MDA-MB-231 cells (10^6) and randomly allocated to one of the six treatment groups (n=5): (i) DMSO, (ii) Paclitaxel (PTX), 5 mg/kg, (iii) compound 37b, 5 mg/kg, (iv) compound 37b, 10 mg/kg, (v) compound 48, 5 mg/kg, or (vi) compound 48, 10 mg/kg. When control animals (DMSO) began to appear tumor ulceration (25 days), all animals in the experiment were sacrificed and photographed.
FIG. 12B are photographs of the tumor from sacrificed animals of different treatment groups after 25 days. FIG. 12C is a graph showing the tumor weight of xenograft tumors versus time after s.c. injection of DMSO, PTX, compound 37b, or compound 48. Data are shown as mean±SEM. * P≤0.05 versus DMSO group. FIG. 12D are photographs showing the morphological observation of mice tissue treated with DMSO, paclitaxel, compound 37b, or compound 48 with H&E staining on heart, liver, kidney, lungs, and spleen tissues (200×).

HEYA8 CSCs [4] = experiment: CellTiter-Glo viability, HeyA8 cancer stem cells (spheres); assay type: cell-based; details: for IC50: HEY A8, cancer stem cell spheres, CellTiter-Glo, 48 hrs, n = 3, read-out: IC50 HeyA8sp (HEYA8 CSCs); for cell viability of ovarian cancer cells and cancer stem cells (FIG. 3C, words): both ovarian cancer cells and CSCs
NIH3T3 = experiment: CellTiter-Glo viability, NIH3T3 cells (Table 14); assay type: cell-based; details: Mus musculus, 48 hrs, n = 3
[5] = MTT, 48 h incubation, mean, n = 3, read-out: IC50 against HCT116 cells
[6] = Table 12b, read-out: IC50 HCT116
[7] = MDA-MB-231, Table 12b, read-out: IC50 MDA-MB-231
[8] = MTT, 48 h incubation, mean, n = 3, read-out: IC50 against T47D cells

What does the source list for `CC(C)(C)C1CCC2(CC1)OOC1(CCC(OC(=O)NCCC[P+](c3ccccc3)(c3ccccc3)c3ccccc3)CC1)OO2.[Br-]` (stereo not drawn) [Compound 37b, (3-((((12-(tert-butyl)-7,8,15,16-tetraoxadispiro[5.2.59.26]hexadecan-3-yl)oxy)carbonyl)amino)propyl)triphenylphosphonium bromide]?
IC50 (HCT116 cells; [5]): 600 ± 300 nM; IC50 (HCT116 cells; [6]): 600 ± 300 nM; selectivity index (IC50 of NIH3T3 divided by IC50 on HCT116) (HCT116 cells; Table 12b, value in bracket): (>7.6); fold more cytotoxic to HCT116 cells than OZ277 (HCT116 cells): 113 fold; fold more cytotoxic than OZ439 on HCT116 (HCT116 cells): 106 fold; hydroxyl radical (HKOH-1r fluorescence) [1]: significant amount of hydroxyl radical was observed; IC50 (PLC): 2700 ± 20 nM; IC50 (MCF7): 2400 ± 1700 nM; cell death pathway (HEYA8 CSCs [2]): induced ferroptosis instead of apoptosis; IC50 (Hela cells): 1600 nM; IC50 (Huh7): 3800 ± 900 nM; IC50 (MDA-MB-231 cells; [7]): 400 ± 50 nM; selectivity index (IC50 of NIH3T3 divided by IC50 on MDA-MB-231) (MDA-MB-231 cells; Table 12b, value in bracket): (>11.5); fold more potent than FINO2 in eradicating MDA-MB-231 cells (MDA-MB-231 cells): ≥ 25 fold; fold more cytotoxic to MDA-MB-231 cells than OZ277 (MDA-MB-231 cells; comparator OZ277): 87 fold; fold more cytotoxic than OZ439 on MDA-MB-231 (MDA-MB-231 cells): 64 fold; IC50 (HeyA8 cells): 1400 ± 70 nM; IC50 (T47D cells; [8]): 620 nM; IC50 (T47D cells; Table 12b, read-out: IC50 T47D): 600 ± 100 nM; selectivity index (IC50 of NIH3T3 divided by IC50 on T47D) (T47D cells; Table 12b, value in bracket): (>7.6); IC50 (MDCK cells): 9500 nM; tumor growth compared with vehicle control ([3]; 10 mg/kg, MDA-MB-231 xenograft, 25 days): effective in inhibiting tumor growth; histopathological observations of liver, heart, kidney, spleen and lungs [3]: no histological alterations; IC50 (HEYA8 CSCs [4]): 1100 ± 400 nM; cell viability of ovarian cancer cells and cancer stem cells (FIG. 3C, words) (HEYA8 CSCs [4]): could diminish the cell viability; IC50 (NIH3T3): 4600 ± 1900 nM

Which results are given for `CC(C)(C)C1CCC2(CC1)OOC1(CCC(OC(=O)NCCC[N+](C)(Cc3ccccc3)Cc3ccccc3)CC1)OO2.[I-]` (stereo not drawn) [Compound 48, N,N-dibenzyl-3-((((12-(tert-butyl)-7,8,15,16-tetraoxadispiro[5.2.59.26]hexadecan-3-yl)oxy)carbonyl)amino)-N-methylpropan-1-aminium iodide]?
IC50 (HCT116 cells; [5]): 2200 ± 300 nM; IC50 (HCT116 cells; [6]): 2200 ± 300 nM; IC50 (HCT116 cells; Table 13, experimental data, MTT, 48 hrs, n = 3, read-out: IC50 HCT116): 2200 ± 300 nM; selectivity index (IC50 of NIH3T3 divided by IC50 on HCT116) (HCT116 cells; Table 13, value in bracket): (>13); fold more cytotoxic to HCT116 cells than OZ277 (HCT116 cells): 44 fold; fold more cytotoxic than OZ439 on HCT116 (HCT116 cells): 29 fold; hydroxyl radical (HKOH-1r fluorescence) [1]: significant amount of hydroxyl radical was observed; IC50 (PLC): 3900 ± 600 nM; IC50 (MCF7): 8700 ± 4100 nM; effect of Fer-1 co-treatment on HEYA8 CSCs (HEYA8 CSCs [2]; 24 h treatment): majority of the CSCs remained unaffected; effect of deferasirox (DFX) on cell death in HEYA8 CSCs (HEYA8 CSCs [2]; 24 h treatment): rescue part of the cell death; cell death pathway (HEYA8 CSCs [2]): ferroptosis; IC50 (Hela cells): 6300 nM; IC50 (Huh7): 5200 ± 400 nM; IC50 (MDA-MB-231 cells; MDA-MB-231, 48 h, MTT, 48 h incubation, mean, n = 3, read-out: IC50 against MDA-MB-231 cells): < 4000 nM; IC50 (MDA-MB-231 cells; MDA-MB-231, 48 h, Table 13, experimental data, MTT, 48 hrs, n = 3, read-out: IC50 MDA-MB-231): 2400 ± 700 nM; IC50 (MDA-MB-231 cells; [7]): 2400 ± 700 nM; selectivity index (IC50 of NIH3T3 divided by IC50 on MDA-MB-231) (MDA-MB-231 cells; Table 13, value in bracket): (>12); fold more potent than FINO2 in eradicating MDA-MB-231 cells (MDA-MB-231 cells): at least 4 fold; fold more cytotoxic than OZ439 on MDA-MB-231 (MDA-MB-231 cells): 10 fold; IC50 (HeyA8 cells): 2300 ± 700 nM; IC50 (T47D cells; [8]): 1700 nM; IC50 (T47D cells; Table 12b, read-out: IC50 T47D): 1700 ± 300 nM; IC50 (T47D cells; Table 13, experimental data, MTT, 48 hrs, n = 3, read-out: IC50 T47D): 1700 ± 300 nM; selectivity index (IC50 of NIH3T3 divided by IC50 on T47D) (T47D cells; Table 12b, value in bracket): (>17); selectivity index (IC50 of NIH3T3 divided by IC50 on T47D) (T47D cells; Table 13, value in bracket): (>17); IC50 (MDCK cells): 28200 nM; tumor size ([3]; 5 mg/kg and 10 mg/kg, MDA-MB-231 xenograft, 25 days): reduced the tumor size; histopathological observations of liver, heart, kidney, spleen and lungs [3]: no histological alterations; abnormal behavior or weight loss during treatment period ([3]; MDA-MB-231 xenograft mice, entire treatment period): no abnormal behavior or weight loss; fold more cytotoxic to HEYA8 CSCs than non-cancerous cells (HEYA8 CSCs [4]): at least 24 fold; IC50 (HEYA8 CSCs [4]): 1200 ± 500 nM; cell viability of ovarian cancer cells and cancer stem cells (FIG. 3C, words) (HEYA8 CSCs [4]): could diminish the cell viability; IC50 (NIH3T3): 29000 ± 5700 nM
